Measurements reported in paper PMC10786692 (The Journal of Clinical Investigation, 2024).

What was measured:
γH2AX = assay: Paired tumor biopsy γH2AX IHC; assay type: in vivo, human; conditions: four paired biopsies, after 2-week dosing
Description: PD sampling took place at baseline (within 7 days prior to dosing) and between days 15 and 22 of dosing (day 14 for intermittent dosing cohorts). PD samples included PBMCs and tumor biopsies. PBMCs were analyzed by immunofluorescence for γ^(S139)H2AX, p-^(S345)Chk1, and total Chk1, as described in Supplemental Methods. Paired tumor biopsies were formalin fixed and analyzed for nuclear p-^(S635)Rad50 and γH2AX by IHC. […]
signatures for heatmap construction were used from MSigDB (49) and cell-type-related transcripts from NanoString annotations and Bindea et al (50). Cell-type deconvolution was performed using CIBERSORTx (51).
(§1) Supplementary Pharmacodynamic methods
Formalin fixed paraffin-embedded tumor samples were used. […] H-score was calculated using HALO image analysis (Indica Labs). […] Nuclear ATM (Abcam 32420) IHC staining was carried out on the Ventana autostainer, using DAB detection and assessed by H-score, but samples were only deemed acceptable if lymphocyte staining (internal control) was at least 2+ (moderate) intensity. Cyclin E1 (Invitrogen HE12) staining was carried out on the Ventana autostainer, using DAB detection and the H-score was quantified using HALO image analysis (Indica Labs). Ki67 (Mib-1, Dako M7240) was scored by percent nuclear positivity using a global unweighted method, scoring 4 areas of 100 cells. […]

tumor biopsies = assay: Stromal TIL count (H&E) and PD-L1 IHC in tumor biopsies; assay type: in vivo, human
Text: as §1
Formalin fixed paraffin-embedded tumor samples were used. […]
Quantification of tumor-infiltrating lymphocytes was done using a semi-automated method in QuPath (53). Scanned H&E sections were first segmented into tumor and stroma, using a random trees machine-learning classifier, for each tumor section. Nuclei were segmented using Stardist (54), then stromal nuclei were sorted by size (area <20 µm2) and circularity (>0.85), using small circular nuclei to approximate lymphocyte

[1] = Treatment-related adverse events (CTCAE v4.03), PATRIOT phase I; assay type: in vivo; conditions: for TRAE Overall events: n: Total
Description: For part A (dose escalation; Figure 1, A and B), the starting dose of 20 mg was selected based on animal toxicity studies. Dosing was continuous, and escalation used a modified Fibonacci method. Initial dose escalation was planned in single patient cohorts, changing to 3+3 design after the first grade-2 toxicity was seen. […] DLT definitions are in the Supplemental Methods.
For part B, all patients received the RP2D as defined for part A. Part B allowed for different schedules (continuous/intermittent) to be assessed. Initially, a continuous dosing schedule was used for the first 6 patients. […] Pretreatment biopsy was mandatory in part B. DNA-Seq of archival tumor material or review of external tumor sequencing was used to enrich for patients with putative genomic markers of sensitivity to ATRi, based on preclinical data, including oncogene amplification or driver mutation, ATM/G1 pathway defects (alteration in ATM, CHK2, or other components of the pathway causing G1 cell-cycle arrest after DNA damage), SWI/SNF (switch/sucrose nonfermentable, a chromatin-remodeling complex) pathway defect, genomic instability/homologous recombination deficit (HRD), or defect in a gene synthetically lethal with ATRi in published data ([46], [47]) (Figure 1B and Supplemental Table 3).
Patients were assessed weekly during cycle 1 and twice weekly thereafter, with safety assessments including blood hematology and biochemistry, physical examination, and toxicity scoring.

[2] = tested on: peripheral blood immune cells; assay: Flow cytometry immune profiling of peripheral blood; assay type: in vivo, human
Description: DNA-Seq of tumor and matched buffy coats was either by whole-exome sequencing or a custom-designed panel targeting all exons of genes of interest for 173 genes, including potential markers of sensitivity to ATRi. ACK-lysed whole blood or PBMCs were stained for flow cytometry using 8 multicolor panels. Plasma cytokines were assessed using the Bio-Plex Pro 27-Plex Panel (Bio-Rad). See Supplemental Methods for full information. […]
Peripheral blood was drawn into 8 mL EDTA tubes (Vacutainer, BD) and analyzed within 24
hours. ACK-lysed whole blood (for myeloid panel) or PBMC from density gradient centrifugation
(for lymphocyte panel) were used. Samples were surface-stained with antibodies for 30 mins at
4 OC. Samples were analyzed on a LSR Fortessa (BD Biosciences). FACS analyses were
CD56 PE-Dazzle 594 Biolegend
CD62L PerCp Cy5.5 Biolegend
NKp30 PerCp Cy5.5 Biolegend
TIGIT PerCp Cy5.5 eBioscience
CD45RO Pacific Blue Biolegend
CTLA-4 PE-Dazzle 594 Biolegend
CD57 PerCp Cy5.5 Biolegend
CD38 PE-Dazzle 594 Biolegend
CD11b ICRF44 PE Biolegend
HLA-DR L243 PerCP Cy5.5 Biolegend
CD16 3G8 APC-C7 Biolegend

[3] = 160 mg BD intermittent schedule

SMILES: C[C@@H]1COCCN1c1cc(C2([S@](C)(=N)=O)CC2)nc(-c2cc[nH]c3nccc2-3)n1 [ceralasertib]
- Number of γH2AX-positive cells in paired tumor biopsies (γH2AX): increase
- Stromal TILs, paired samples (tumor biopsies; a responding patient (not in 3 nonresponders)): appeared to increase
- Immune-cell infiltration and PD-L1 staining on immune cells in paired biopsies (tumor biopsies; responding patient, 40 mg BD, HNSCC, 2 weeks): increase
- TRAE Overall events: n (%) ([1]; 40 mg BD, G1–2): 7 (100)
- TRAE Overall events: n (%) ([1]; 40 mg BD, G3): 0
- TRAE Overall events: n ([1]; 40 mg BD): 7
- TRAE Overall events: n (%) ([1]; 80 mg BD, G1–2): 18 (78)
- TRAE Overall events: n (%) ([1]; 80 mg BD, G3): 5 (22)
- TRAE Overall events: n ([1]; 80 mg BD): 23
- Tolerability of intermittent versus continuous schedule ([1]; 160 mg BD): better tolerated
- Incidence of G3 leukopenia ([1]; 160 mg BD continuous schedule): 8%
- Incidence of G3 or greater anemia ([1]; 160 mg BD continuous schedule): 33%
- TRAE Overall events: n (%) ([1]; 160 mg BD continuous, G1–2): 44 (90)
- TRAE Overall events: n (%) ([1]; 160 mg BD continuous, G3): 5 (10)
- TRAE Overall events: n ([1]; 160 mg BD continuous): 49
- Incidence of G3 leukopenia [1, 3]: 0%
- Incidence of G3 or greater anemia [1, 3]: 9%
- TRAE Overall events: n (%) ([1]; 160 mg BD intermittent, G1–2): 100 (89)
- TRAE Overall events: n (%) ([1]; 160 mg BD intermittent, G3): 11 (10)
- TRAE Overall events: n (%) ([1]; 160 mg BD intermittent, G4): 1 (1)
- TRAE Overall events: n ([1]; 160 mg BD intermittent): 112
- TRAE Overall events: n (%) ([1]; 240 mg BD, G1–2): 26 (77)
- TRAE Overall events: n (%) ([1]; 240 mg BD, G3): 8 (24)
- TRAE Overall events: n (%) ([1]; 240 mg BD, G4): 7 (21)
- Related SAE ([1]; 20 and 40 mg dose levels): N o related SAE
- Treatment-related deaths ([1]; all 67 treated patients): no treatment-related deaths
- Patients requiring dose reduction or interruption for toxicity ([1]; continuous schedule (incl. part A), 6 of 12): 50%
- Patients withdrawn due to toxicity ([1]; dose-escalation phase): Four
- Patients withdrawn due to toxicity ([1]; dose-expansion phase): 1
- Patients requiring dose reduction or interruption for toxicity ([1]; intermittent schedule, 10 of 35): 29%
- CD8+ T cells in peripheral blood ([2]; 160 mg BD intermittent): trend toward increased
- Classical and intermediate monocytes ([2]; 160 mg BD intermittent): reduction
- Granulocytic MDSCs (gMDSC) ([2]; 160 mg BD intermittent): increased
- Monocytic MDSCs (mMDSCs) ([2]; 160 mg BD intermittent): reduced
- Naive and central memory CD8+ and CD4+ T cells ([2]; 160 mg BD intermittent): increased
- PD-1–positive CD8+ T cells ([2]; 160 mg BD intermittent): reduction
- Tregs in peripheral blood ([2]; 160 mg BD intermittent, 8 participants): reduction
- Memory CD4-TEMRA cells ([2]; day 29): increased frequencies
- NKG2A- and CD69-positive NK cells ([2]; normalized after the 2-week break): trend toward increased
